Laboratory results as given in patent US7368454B2, “(3,4-dihydro-quinazolin-2-yl)-aryl-amines” (Hoffmann-La Roche Inc., priority 2005, dated 2008).

Biological target: T1, recombinant human 5-HT5A receptor (Homo sapiens, UniProt P47898)
T1 construct: expressed in transfected cells; host or cells: Human Embryonic Kidney-EBNA (HEK-EBNA) cells, transient expression, membranes
Test: [3H]LSD radioligand binding assay
Settings: [3H]LSD approx. 1 nM; membranes from HEK-EBNA cells transiently expressing 5-HT5A; SPA; Ki from IC50 by Cheng-Prussoff equation
Procedure: A [^3H]LSD radioligand binding assay was used to determine the affinity of the compounds for the recombinant human 5-HT5A receptor, in membranes from transiently (cDNA) expressed 5-HT 5A receptors in Human Embryonic Kidney-EBNA (HEK-EBNA) cells. Assay buffer consisted of Tris (50 mM) buffer containing 1 mM EGTA, 10 mM MgCl2 (pH 7.4) and 10 μM pargyline. The binding assay was carried out in 96-well-plates in the presence of [^3H]LSD (approximately 1 nM), approximately 2 μg/well of membrane protein, and 0.5 mg of Ysi-poly-1-lysine SPA beads in a final volume of 200 μl of buffer. Non-specific binding was defined using methiothepin 2 μM. Compounds were tested at 10 concentrations. All assays were conducted in duplicate and repeated at least two times. Assay plates were incubated for 120 min at room temperature before centrifugation. Bound ligand was determined using a Packard Topcount scintillation counter. IC50 values were calculated using a non-linear curve fitting program and Ki values calculated using the Cheng-Prussoff equation.

T1 sequence (P47898 whole entry): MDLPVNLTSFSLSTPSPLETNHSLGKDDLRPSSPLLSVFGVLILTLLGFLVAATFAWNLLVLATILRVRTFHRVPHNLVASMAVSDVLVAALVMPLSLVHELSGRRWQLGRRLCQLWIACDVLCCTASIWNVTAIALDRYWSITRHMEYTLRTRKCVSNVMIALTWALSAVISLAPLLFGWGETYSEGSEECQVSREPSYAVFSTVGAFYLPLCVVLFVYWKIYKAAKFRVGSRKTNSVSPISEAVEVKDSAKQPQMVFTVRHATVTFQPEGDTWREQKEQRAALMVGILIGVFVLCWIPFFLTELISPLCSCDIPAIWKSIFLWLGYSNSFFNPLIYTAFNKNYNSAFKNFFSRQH

| SMILES | Ki [nM] |
| --- | --- |
| Cc1cccc2c1CNC(Nc1cccc(C(F)(F)F)c1)=N2 [Example 1, (5-Methyl-3,4-dihydro-quinazolin-2-yl)-(3-trifluoromethyl-phenyl)-amine] | 85 |
| FC(F)(F)c1cccc(NC2=Nc3ccccc3CN2)c1 [Example 2, (3,4-Dihydro-quinazolin-2-yl)-(3-trifluoromethyl-phenyl)-amine] | 91 |
| FC(F)(F)c1cccc(NC2=Nc3cccc(Cl)c3CN2)c1 [Example 3, (5-Chloro-3,4-dihydro-quinazolin-2-yl)-(3-trifluoromethyl-phenyl)-amine] | 118 |
| Cc1cccc(NC2=Nc3ccccc3CN2)c1 [Example 4, (3,4-Dihydro-quinazolin-2-yl)-m-tolyl-amine] | 143 |
| c1ccc2c(c1)CNC(Nc1ccc3c(c1)CCC3)=N2 [Example 5, (3,4-Dihydro-quinazolin-2-yl)-indan-5-yl-amine] | 149 |
| c1ccc2c(c1)CNC(Nc1cccc3ccccc13)=N2 [Example 6, (3,4-Dihydro-quinazolin-2-yl)-naphthalen-1-yl-amine] | 155 |
| Clc1cccc(NC2=Nc3ccccc3CN2)c1 [Example 10, (3-Chloro-phenyl)-(3,4-dihydro-quinazolin-2-yl)-amine] | 300 |
| Clc1ccc(NC2=Nc3ccccc3CN2)cc1 [Example 15, (4-Chloro-phenyl)-(3,4-dihydro-quinazolin-2-yl)-amine] | 990 |
| Fc1ccccc1NC1=Nc2ccccc2CN1 [Example 16, (3,4-Dihydro-quinazolin-2-yl)-(2-fluoro-phenyl)-amine; hydriodide] | 1000 |
